pIC50: −log10 of the molar value. Counter-ions that a name gives are not always drawn. Like-named read-outs stand apart in the source and are kept apart here.
Legend:
[1] = system: A2780 human ovarian cancer cells; assay: In vitro cell proliferation assay (CellTiter-Glo); type: cell-based; conditions: 72 h; for IC50: read-out: A2780 (IC50 nM); for pIC50: read-out: IC50 value in A2780 human ovarian cancer cells
Method: In Vitro Cell Proliferation Assay
A2780 human ovarian and MCF7 human breast cancer cells (1250 cells/well) were seeded in white 384 well-plates in complete medium (RPMI1640 or EMEM plus 10% Fetal bovine serum) and treated with compounds dissolved in 0.1% DMSO, 24 h after seeding. The cells were incubated at 37° C. and 5% CO2 and after 72 h the plates were processed using CellTiter-Glo assay (Promega) following the manufacturers instructions.
CellTiter-Glo is a homogenous method based on the quantification of the ATP present, an indicator of metabolically active cells. ATP is quantified using a system based on luciferase and D-luciferin resulting into light generation. The luminescent signal is proportional to the number of cells present in culture.
Briefly, 25 μL/well of reagent solution are added to each well and after 5 min shaking microplates are read by a luminometer. The luminescent signal is proportional to the number of cells present in culture.

[2] = Elimination of self-immolative group at pH 7.4 (HPLC/MS); type: physicochemical; conditions: pH 7.4 (Tris-HCl buffer), room temperature, 1 h
Method: (§1) The conjugate A1 was incubated with 0.2 units of cathepsin B in sodium acetate buffer pH 5.5 and 1 mM Cys for 2 h at 40° C. Then pH was adjusted to 7.4 by addition of Tris-HCl buffer and maintained at room temperature for 1 h.

[3] = target: cathepsin B (Homo sapiens, UniProt P07858); assay: Release of a drug moiety from conjugate in presence of cathepsin B; type: biochemical; conditions: 0.2 units cathepsin B, sodium acetate buffer pH 5.5, 1 mM Cys, 2 h at 40° C.
Method: As an example, that is not intended to limit the scope of the invention, the release of a compound of formula (I) from the conjugate was performed in presence of cathepsin as reported below.
as §1

CC[C@@]1(O)C(=O)OCc2c1cc1n(c2=O)Cc2cc3c(Br)cccc3nc2-1 [9-bromo-camptothecin]
IC50 [1]: 1.62 nM

CC[C@@]1(OC(=O)CN)C(=O)OCc2c1cc1n(c2=O)Cc2cc3c(Br)cccc3nc2-1 [Comp. 1, (4S)-10-bromo-4-ethyl-3,14-dioxo-3,4,12,14-tetrahydro-1H-pyrano[3′,4′6,7]indolizino[1,2-b]quinolin-4-yl glycinate hydrochloride]
IC50 [1]: 0.97 nM
pIC50 [1]: > 8.00

CC[C@@]1(OC(=O)CNC(=O)[C@H](CC(C)C)NC(=O)[C@@H](N)Cc2ccccc2)C(=O)OCc2c1cc1n(c2=O)Cc2cc3c(Br)cccc3nc2-1 [Comp. 2, (4S)-10-bromo-4-ethyl-3,14-dioxo-3,4,12,14-tetrahydro-1H-pyrano[3′,4′:6,7]indolizino[1,2-b]quinolin-4-yl L -phenylalanyl-L-leucylglycinate]
IC50 [1]: 1.56 nM
pIC50 [1]: > 8.00

CC[C@@]1(OC(=O)CC2(CN)CCCCC2)C(=O)OCc2c1cc1n(c2=O)Cc2cc3c(Br)cccc3nc2-1.Cl [Comp. 11]
Release of 9-bromo-camptothecin by elimination of the self-immolative group W [2]: elimination of the self-immolative group W

CC[C@@]1(OC(=O)CC2(CNC(=O)[C@@H](CCCNC(N)=O)NC(=O)[C@@H](NC(=O)CCCCCN3C(=O)CC(N[C@H](C=O)CS)C3=O)C(C)C)CCCCC2)C(=O)OCc2c1cc1n(c2=O)Cc2cc3c(Br)cccc3nc2-1 (stereo partly shown) [conjugate A1]
Cleavage of the Z peptidic linker of the conjugate with release of Comp. 11 [3]: Partial disappearance
